Source: ChEMBL document CHEMBL1131696, “Highly constrained dipeptoid analogues containing a type II' beta-turn mimic as novel and selective CCK-A receptor ligands” (Bioorg Med Chem Lett, 1999)

How the values were obtained:
[1] = target: T1, Gastrin/cholecystokinin type B receptor (Mus musculus, UniProt P56481); test: Inhibition of [3H]propionyl-CCK-8 binding to mouse cerebral cortex membrane cholecystokinin-B (CCK-B) receptor; type: tissue-based
T1 sequence (P56481 whole entry): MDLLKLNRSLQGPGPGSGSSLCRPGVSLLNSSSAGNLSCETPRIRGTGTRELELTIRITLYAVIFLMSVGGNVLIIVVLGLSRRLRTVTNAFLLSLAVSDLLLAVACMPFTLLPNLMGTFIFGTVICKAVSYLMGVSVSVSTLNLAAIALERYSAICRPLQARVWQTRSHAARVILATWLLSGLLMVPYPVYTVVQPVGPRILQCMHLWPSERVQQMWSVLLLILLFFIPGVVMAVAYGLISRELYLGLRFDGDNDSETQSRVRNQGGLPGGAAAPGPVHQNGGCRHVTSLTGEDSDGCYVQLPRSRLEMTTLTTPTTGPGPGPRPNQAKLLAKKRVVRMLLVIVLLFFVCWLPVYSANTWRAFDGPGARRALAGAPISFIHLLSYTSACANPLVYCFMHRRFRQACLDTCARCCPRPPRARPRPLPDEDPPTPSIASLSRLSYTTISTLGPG

[2] = target: T2, Cholecystokinin receptor type A (Rattus norvegicus, UniProt P30551); test: Inhibition of [3H]propionyl-CCK-8 binding to rat pancreas cholecystokinin-A (CCK-A) receptor
T2 sequence (P30551 whole entry): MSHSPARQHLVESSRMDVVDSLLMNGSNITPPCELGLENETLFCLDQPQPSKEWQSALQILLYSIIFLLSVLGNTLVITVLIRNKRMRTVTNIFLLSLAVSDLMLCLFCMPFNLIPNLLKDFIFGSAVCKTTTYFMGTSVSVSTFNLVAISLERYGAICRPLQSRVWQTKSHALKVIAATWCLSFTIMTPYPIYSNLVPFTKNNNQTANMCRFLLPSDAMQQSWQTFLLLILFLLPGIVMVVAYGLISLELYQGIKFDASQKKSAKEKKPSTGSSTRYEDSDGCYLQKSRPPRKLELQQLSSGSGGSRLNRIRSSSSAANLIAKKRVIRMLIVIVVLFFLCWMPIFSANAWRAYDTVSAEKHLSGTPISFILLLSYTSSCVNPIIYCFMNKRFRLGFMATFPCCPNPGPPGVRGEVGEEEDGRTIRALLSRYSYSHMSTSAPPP

| Compound | IC50 [1] [µM] | IC50 [2] [µM] |
| --- | --- | --- |
| O=C(O)C[C@H](Cc1ccccc1)NC(=O)[C@@H]1Cc2c([nH]c3ccccc23)[C@@H]2C[C@H](NC(=O)OCc3ccccc3)C(=O)N12 | > 10 | 0.635 |
| CC(C)(C)OC(=O)N[C@H]1C[C@@H]2c3[nH]c4ccccc4c3C[C@@H](C(=O)N[C@H](CC(=O)O)Cc3ccccc3)N2C1=O | > 10 | > 10 |
| O=C(O)C[C@@H](Cc1ccccc1)NC(=O)[C@@H]1Cc2c([nH]c3ccccc23)[C@@H]2C[C@H](NC(=O)OCc3ccccc3)C(=O)N12 | > 10 | 1 |
| C[Si](C)(C)CCOC(=O)C[C@H](Cc1ccccc1)NC(=O)[C@@H]1Cc2c([nH]c3ccccc23)[C@@H]2C[C@H](NC(=O)OCc3ccccc3)C(=O)N12 | > 10 | 0.46 |

Second part, the compound after the results:

| IC50 [1] [µM] | IC50 [2] [µM] | Compound |
| --- | --- | --- |
| > 10 | 1.4 | C[Si](C)(C)CCOC(=O)C[C@@H](Cc1ccccc1)NC(=O)[C@@H]1Cc2c([nH]c3ccccc23)[C@@H]2C[C@H](NC(=O)OCc3ccccc3)C(=O)N12 |
| > 10 | 4.48 | CC(C)(C)OC(=O)N[C@H]1C[C@@H]2c3[nH]c4ccccc4c3C[C@@H](C(=O)N[C@@H](CC(=O)O)Cc3ccccc3)N2C1=O |
| > 10 | 0.088 | O=C(O)C[C@H](Cc1ccccc1)NC(=O)[C@@H]1Cc2c([nH]c3ccccc23)[C@H]2C[C@H](NC(=O)OCc3ccccc3)C(=O)N21 |
| 1.5 | 0.18 | C[Si](C)(C)CCOC(=O)C[C@@H](Cc1ccccc1)NC(=O)[C@@H]1Cc2c([nH]c3ccccc23)[C@H]2C[C@H](NC(=O)OCc3ccccc3)C(=O)N21 |
| 2.4 | 0.22 | C[Si](C)(C)CCOC(=O)C[C@H](Cc1ccccc1)NC(=O)[C@@H]1Cc2c([nH]c3ccccc23)[C@H]2C[C@H](NC(=O)OCc3ccccc3)C(=O)N21 |
| 2.7 | 0.0074 | O=C(O)C[C@@H](Cc1ccccc1)NC(=O)[C@@H]1Cc2c([nH]c3ccccc23)[C@H]2C[C@H](NC(=O)OCc3ccccc3)C(=O)N21 |
